From patent US20240116985A1, “STAPLED PEPTIDES AND METHODS THEREOF” (priority 2020, published 2024)
Converted amounts (≈) assume the structure as drawn. Read-outs that look alike come from different tables or passages of the source.

Key:
[1] = molecular target: T1, full-length beta-Catenin (Uniprot ID P35222) (Homo sapiens, UniProt P35222); experiment: Fluorescence polarization IC50 (beta-catenin / 5FAM-TCF4 10-53 competition); assay type: binding
T1 construct: 10 nM full-length beta-Catenin (Uniprot ID P35222)
T1 sequence (P35222 1-781): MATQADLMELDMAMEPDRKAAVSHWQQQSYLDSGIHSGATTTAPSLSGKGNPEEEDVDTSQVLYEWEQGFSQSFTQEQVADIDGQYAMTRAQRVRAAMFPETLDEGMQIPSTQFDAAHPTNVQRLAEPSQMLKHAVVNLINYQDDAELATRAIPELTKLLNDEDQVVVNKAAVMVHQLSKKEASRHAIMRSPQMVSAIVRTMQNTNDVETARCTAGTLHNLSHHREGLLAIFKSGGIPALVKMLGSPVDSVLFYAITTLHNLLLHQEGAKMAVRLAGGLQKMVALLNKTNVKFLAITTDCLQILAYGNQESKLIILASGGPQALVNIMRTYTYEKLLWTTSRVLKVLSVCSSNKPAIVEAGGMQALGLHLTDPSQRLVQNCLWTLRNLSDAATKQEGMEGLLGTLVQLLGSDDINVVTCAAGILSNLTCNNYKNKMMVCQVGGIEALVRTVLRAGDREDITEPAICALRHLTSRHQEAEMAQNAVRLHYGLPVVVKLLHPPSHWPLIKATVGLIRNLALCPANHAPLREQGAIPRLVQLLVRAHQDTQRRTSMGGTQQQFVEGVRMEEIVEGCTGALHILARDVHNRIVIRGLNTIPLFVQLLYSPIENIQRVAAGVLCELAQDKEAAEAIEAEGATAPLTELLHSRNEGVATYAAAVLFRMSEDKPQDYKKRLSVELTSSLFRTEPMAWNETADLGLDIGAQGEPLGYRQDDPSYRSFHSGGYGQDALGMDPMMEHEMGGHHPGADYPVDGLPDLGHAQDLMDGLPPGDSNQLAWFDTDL

CHI Log D procedure = assay type: physicochemical; conditions: for chromatographic logD: pH 7.4, CHI Log D; for CHI Log D: pH 7.4
Solubility in PBS = assay type: physicochemical
Outline: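 Steps: ultracentrifuge the peptide PBS solution, inject the supernatant on HPLC, inject a 50 μM peptide DMSO solution as reference, then calculate solubility as area ratio (PBS/DMSO) × 50 uM.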

[2] = fluorescence polarization, read-out: beta-Catenin FP IC50

Compound | IC50 [1, 2] [nM] | chromatographic logD (CHI Log D procedure) | Solubility (Solubility in PBS) [µM] | IC50 ([1]; read-out: FP EC50) [nM] | CHI Log D (CHI Log D procedure)
CC(=O)N1CCC[C@]12CC=CCCCC1(CCCC=CCCCCCC[C@@](C)(C(=O)N[C@@H](Cc3ccccc3)C(=O)N[C@@H](Cc3csc4ccccc34)C(=O)N[C@@H](Cc3c[nH]cn3)C(N)=O)NC(=O)[C@H](CCCNC(N)=O)NC(=O)[C@H](Cc3ccccc3)NC(=O)[C@H](C)NC(=O)[C@H](C)NC(=O)[C@H](CCC(=O)O)NC(=O)[C@H](CC(=O)O)NC1=O)NC(=O)[C@H](CC(C)C)NC(=O)[C@H](CC(=O)O)NC2=O (stereo partly drawn) [I-616, Ac-PL3-Asp-Leu-B5-Asp-Glu-Ala-Ala-Phe-Cit-S8-Phe-BztA-His-NH2] | 108 | 2.41 | 10 (≈ 19.2 µg/mL) | – | –
CC(=O)N1CCC[C@]12CC=CCCCC1(CCCC=CCCCCCC[C@@](C)(C(=O)N[C@@H](Cc3ccccc3)C(=O)N[C@@H](Cc3csc4ccccc34)C(=O)N[C@@H](Cc3c[nH]cn3)C(N)=O)NC(=O)[C@H]([C@@H](C)O)NC(=O)[C@H](Cc3ccccc3)NC(=O)[C@H](C)NC(=O)[C@H](C)NC(=O)[C@H](CCC(=O)O)NC(=O)[C@H](CC(=O)O)NC1=O)NC(=O)[C@H](CC(C)C)NC(=O)[C@H](CC(=O)O)NC2=O (stereo partly drawn) [I-617, Ac-PL3-Asp-Leu-B5-Asp-Glu-Ala-Ala-Phe-Thr-S8-Phe-BztA-His-NH2] | 253 | – | 10 (≈ 18.7 µg/mL) | 253 | 2.549
CC(=O)N1CCC[C@]12CC=CCCCC1(CCCC=CCCCCCC[C@@](C)(C(=O)N[C@@H](Cc3ccccc3)C(=O)N[C@@H](Cc3csc4ccccc34)C(=O)N[C@@H](Cc3c[nH]cn3)C(N)=O)NC(=O)[C@H]([C@@H](C)O)NC(=O)[C@H](Cc3ccccc3)NC(=O)[C@H](C)NC(=O)[C@H](C)NC(=O)[C@H](CCC(=O)O)NC(=O)[C@H](CC(=O)O)NC1=O)NC(=O)[C@H](CC(C)C)NC(=O)[C@H](CC(=O)O)NC2=O (stereo partly drawn) [I-618, Ac-PL3-Asp-Leu-B5-Asp-Glu-Ala-Ala-Phe-Thr-S8-Phe-BztA-His-NH2] | 135 | – | 10 (≈ 18.7 µg/mL) | 135 | 2.617
CC(=O)N1CCC[C@]12CC=CCCCC1(CCCC=CCCCCCC[C@@](C)(C(=O)N[C@@H](Cc3ccccc3)C(=O)N[C@@H](Cc3csc4ccccc34)C(=O)N[C@@H](CCC(N)=O)C(N)=O)NC(=O)[C@H](CC(N)=O)NC(=O)[C@H](Cc3ccccc3)NC(=O)[C@H](C)NC(=O)[C@H](C)NC(=O)[C@H](CCC(=O)O)NC(=O)[C@H](CC(=O)O)NC1=O)NC(=O)[C@H](CC1CCCCC1)NC(=O)[C@H](CC(=O)O)NC2=O (stereo partly drawn) [I-619, Ac-PL3-Asp-Cha-B5-Asp-Glu-Ala-Ala-Phe-Asn-S8-Phe-BztA-Gln-NH2] | 44 | – | 47 (≈ 89.7 µg/mL) | 44 | 2.677
CC(=O)N1CCC[C@]12CC=CCCCC1(CCCC=CCCCCCC[C@@](C)(C(=O)N[C@@H](Cc3ccccc3)C(=O)N[C@@H](Cc3csc4ccccc34)C(=O)N[C@@H](CCC(N)=O)C(N)=O)NC(=O)[C@H](CCCNC(N)=O)NC(=O)[C@H](Cc3ccccc3)NC(=O)[C@H](C)NC(=O)[C@H](C)NC(=O)[C@H](CCC(=O)O)NC(=O)[C@H](CC(=O)O)NC1=O)NC(=O)[C@H](CC(C)C)NC(=O)[C@H](CC(=O)O)NC2=O (stereo partly drawn) [I-621, Ac-PL3-Asp-Leu-B5-Asp-Glu-Ala-Ala-Phe-Cit-S8-Phe-BztA-Gln-NH2] | 58 | 2.34 | 50 (≈ 95.6 µg/mL) | – | –
CC(=O)N1CCC[C@]12CC=CCCCC1(CCCC=CCCCCCC[C@@](C)(C(=O)N[C@@H](Cc3ccccc3)C(=O)N[C@@H](Cc3csc4ccccc34)C(=O)N[C@@H](CCC(N)=O)C(N)=O)NC(=O)[C@H]([C@@H](C)O)NC(=O)[C@H](Cc3ccccc3)NC(=O)[C@H](C)NC(=O)[C@H](C)NC(=O)[C@H](CCC(=O)O)NC(=O)[C@H](CC(=O)O)NC1=O)NC(=O)[C@H](CC(C)C)NC(=O)[C@H](CC(=O)O)NC2=O (stereo partly drawn) [I-622, Ac-PL3-Asp-Leu-B5-Asp-Glu-Ala-Ala-Phe-Thr-S8-Phe-BztA-Gln-NH2] | 230 | – | 45 (≈ 83.5 µg/mL) | 230 | 2.453
CC(=O)N1CCC[C@]12CC=CCCCC1(CCCC=CCCCCCC[C@@](C)(C(=O)N[C@@H](Cc3ccccc3)C(=O)N[C@@H](Cc3csc4ccccc34)C(=O)N[C@@H](CCC(N)=O)C(N)=O)NC(=O)[C@H]([C@@H](C)O)NC(=O)[C@H](Cc3ccccc3)NC(=O)[C@H](C)NC(=O)[C@H](C)NC(=O)[C@H](CCC(=O)O)NC(=O)[C@H](CC(=O)O)NC1=O)NC(=O)[C@H](CC(C)C)NC(=O)[C@H](CC(=O)O)NC2=O (stereo partly drawn) [I-623, Ac-PL3-Asp-Leu-B5-Asp-Glu-Ala-Ala-Phe-Thr-S8-Phe-BztA-Gln-NH2] | 103 | – | 44 (≈ 81.7 µg/mL) | 103 | 2.494
CC(=O)N1CCC[C@]12CC=CCCCC1(CCCC=CCCCCCC[C@@](C)(C(=O)N[C@@H](Cc3ccccc3)C(=O)N[C@@H](Cc3csc4ccccc34)C(N)=O)NC(=O)[C@H](CC(N)=O)NC(=O)[C@H](Cc3ccccc3)NC(=O)[C@H](C)NC(=O)[C@H](C)NC(=O)[C@H](CCC(=O)O)NC(=O)[C@H](CC(=O)O)NC1=O)NC(=O)[C@H](CC(C)C)NC(=O)[C@H](CC(=O)O)NC2=O (stereo partly drawn) [I-624, Ac-PL3-Asp-Leu-B5-Asp-Glu-Ala-Ala-Phe-Asn-S8-Phe-BztA-NH2] | 273 | – | 27 (≈ 47 µg/mL) | 273 | 2.598
CC(=O)N1CCC[C@]12CC=CCCCC1(CCCC=CCCCCCC[C@@](C)(C(=O)N[C@@H](Cc3ccccc3)C(=O)N[C@@H](Cc3csc4ccccc34)C(N)=O)NC(=O)[C@H](CC(N)=O)NC(=O)[C@H](Cc3ccccc3)NC(=O)[C@H](C)NC(=O)[C@H](C)NC(=O)[C@H](CCC(=O)O)NC(=O)[C@H](CC(=O)O)NC1=O)NC(=O)[C@H](CC(C)C)NC(=O)[C@H](CC(=O)O)NC2=O (stereo partly drawn) [I-625, Ac-PL3-Asp-Leu-B5-Asp-Glu-Ala-Ala-Phe-Asn-S8-Phe-BztA-NH2] | 119 | – | 47 (≈ 81.8 µg/mL) | 119 | 2.681
CC(=O)N1CCC[C@]12CC=CCCCC1(CCCC=CCCCCCC[C@@](C)(C(=O)N[C@@H](Cc3ccccc3)C(=O)N[C@@H](Cc3csc4ccccc34)C(N)=O)NC(=O)[C@H](CC(N)=O)NC(=O)[C@H](Cc3ccccc3)NC(=O)[C@H](C)NC(=O)[C@H](C)NC(=O)[C@H](CCC(=O)O)NC(=O)[C@H](CC(=O)O)NC1=O)NC(=O)[C@H](CC1CCCCC1)NC(=O)[C@H](CC(=O)O)NC2=O (stereo partly drawn) [I-627, Ac-PL3-Asp-Cha-B5-Asp-Glu-Ala-Ala-Phe-Asn-S8-Phe-BztA-NH2] | 338 | – | 47 (≈ 83.7 µg/mL) | 338 | 3.002
CC(=O)N1CCC[C@]12CC=CCCCC1(CCCC=CCCCCCC[C@@](C)(C(=O)N[C@@H](Cc3ccccc3)C(=O)N[C@@H](Cc3csc4ccccc34)C(N)=O)NC(=O)[C@H](CCCNC(N)=O)NC(=O)[C@H](Cc3ccccc3)NC(=O)[C@H](C)NC(=O)[C@H](C)NC(=O)[C@H](CCC(=O)O)NC(=O)[C@H](CC(=O)O)NC1=O)NC(=O)[C@H](CC(C)C)NC(=O)[C@H](CC(=O)O)NC2=O (stereo partly drawn) [I-628, Ac-PL3-Asp-Leu-B5-Asp-Glu-Ala-Ala-Phe-Cit-S8-Phe-BztA-NH2] | 60 | – | 47 (≈ 83.9 µg/mL) | 713 | 3.103
CC[C@H](C)[C@@H]1NC(=O)[C@H](CC(=O)O)NC(=O)[C@]2(CC=CCCCC3(CCCC=CCCCCCC[C@@](C)(C(=O)N[C@@H](Cc4ccccc4)C(=O)N[C@@H](Cc4csc5ccccc45)C(=O)N[C@@H](CCCNC(=N)N)C(N)=O)NC(=O)[C@H](CCC(N)=O)NC(=O)[C@H](Cc4ccccc4)NC(=O)[C@H](C)NC(=O)[C@H](C)NC(=O)[C@H](CCC(=O)O)NC(=O)[C@H](CC(=O)O)NC3=O)NC1=O)CCCN2C(C)=O (stereo partly drawn) [I-633, Ac-PL3-Asp-Ile-B5-Asp-Glu-Ala-Ala-Phe-Gln-S8-Phe-BztA-Arg-NH2] | 88 | 2.62 | 10 (≈ 19.1 µg/mL) | – | –
